The values below are quoted from earlier work in US20060069238A1, “Synthetic glyco-lipo-peptides as vaccines” (Biomira, Inc., priority 2002, published 2006).

The conditions of this data set: n-octanol:water, experimental database of LogKow; cited from earlier work.

Regarding `Cc1c[nH]c2ccccc12` [3-methyl indole], the “LogP Exp” value is reported as 2.60.
